The values below come from patent publication US4423242A, “Pharmaceutical amides, and preparation, formulations and use of thereof” (The Wellcome Foundation Ltd., priority 1981, dated 1983).

Where a name gives a salt, the structure may show the parent alone.

In one assay the test system is ACE versus enkephalinase.
Test: not given
The conditions noted are these: reported by Swerts et al.; ACE vs enkephalinase; cited from earlier work.
Regarding `C[C@H](CS)C(=O)N1CCC[C@H]1C(=O)O` [Captopril, 1-(D-3-mercapto-2-methylpropanoyl)-L-proline (S,S), reference compound], the “concentration required to inhibit ACE by 50% lower than that required for the same degree of inhibition of enkephalinase” value is listed as “approximately 1000 fold”.

Another assay deals with T1, purified enkephalinase Al (Rattus norvegicus, UniProt P07861).
T1 construct: the solubilised enzymes contained in the supernatant separated by DEAE-cellulose column chromatography; from tissue; host or cells: rat striatum, washed membrane pellet solubilised with Triton X-100, DEAE-cellulose then Sephacryl S.300
T1 sequence (P07861 1-750): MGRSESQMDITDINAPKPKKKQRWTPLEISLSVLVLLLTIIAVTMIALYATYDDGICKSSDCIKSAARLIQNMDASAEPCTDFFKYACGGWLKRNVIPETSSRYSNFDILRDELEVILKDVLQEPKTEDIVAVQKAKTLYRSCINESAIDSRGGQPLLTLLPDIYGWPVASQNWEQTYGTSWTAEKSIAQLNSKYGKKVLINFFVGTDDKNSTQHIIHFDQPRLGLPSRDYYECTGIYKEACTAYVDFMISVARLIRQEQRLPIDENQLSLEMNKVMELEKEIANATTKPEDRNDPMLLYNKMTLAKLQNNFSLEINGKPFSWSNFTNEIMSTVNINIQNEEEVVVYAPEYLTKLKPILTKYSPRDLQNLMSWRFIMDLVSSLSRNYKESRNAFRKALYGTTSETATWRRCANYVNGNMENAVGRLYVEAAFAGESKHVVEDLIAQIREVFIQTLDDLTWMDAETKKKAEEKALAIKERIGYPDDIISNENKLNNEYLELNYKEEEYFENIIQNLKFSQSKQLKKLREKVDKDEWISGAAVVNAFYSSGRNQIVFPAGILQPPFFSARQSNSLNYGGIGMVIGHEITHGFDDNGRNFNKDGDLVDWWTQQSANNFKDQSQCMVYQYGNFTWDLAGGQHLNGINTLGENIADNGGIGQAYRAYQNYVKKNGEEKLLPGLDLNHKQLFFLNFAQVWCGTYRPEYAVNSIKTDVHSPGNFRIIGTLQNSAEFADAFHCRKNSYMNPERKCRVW
The assay is described as follows: Enkephalinase-inhibiting activity in vitro (inhibition of 3H-TGG generation from 3H-leucine enkephalin). In kind it is biochemical. The conditions noted are these: approximate, determined graphically; leucine enkephalin 5×10^-5 M; 30° C.; 30 min with enzyme; read-out: IC50 (concentration of test compound required for 50% inhibition of 3H-TGG generation). The procedure: The compounds were investigated for enkephalinase-inhibiting activity using the following method.
Purified enkephalinase Al was obtained according to the following procedure (modification of the method of Gorenstein and Snyder, Life Science, Vol. 25, pages 2065-2070, 1979).
Rats were killed by decapitation and the striata dissected out on ice. The pooled tissues were homogenised in ice-cold Tris/hydrochloric acid buffer (50 mM, pH 7.70, 30 ml per gram of tissue) and centrifuged (50,000 g, 15 mins). The resulting supernatent was discarded and the remaining pellet washed three times. The washed pellet was solubilised by resuspension in half the volume of buffer as before containing 1.0% (v/v) Triton X-100 and incubated at 37° C. for 45 mins. The suspension was then centrifuged at 100,000 g for 60 mins and the solubilised enzymes contained in the supernatant separated by DEAE-cellulose column chromatography. Enkephalinase Al was further purified by Sephacryl S.300 chromatography.
Enkephalinase-inhibiting activity was estimated by the following procedure. 1.75 μl of leucine enkephalin (0.317 mg/ml), 0.5 μl of ^3 H-leucine enkephalin (tyrosyl-3,5-^3 H Enkephalin (5-L-Leucine), The Radiochemical Centre, Amersham, England) and 5.75 μl of buffer as before were incubated at 30° C. for 10 mins with 2 μl of either a solution of test compound (in either 50% ethanol/0.1 M sodium hydrogen carbonate or distilled water) or solvent alone as control. 10 μl of purified enkephalinase Al at 30° C. were added and incubation then continued for a further 30 mins (total incubation time 40 mins, final leucine enkephalin concentration 5×10^-5 M, final ^3 H-leucine enkephalin concentration 12.5 μCi/ml). At the completion of incubation 3 μl of 0.16 M hydrochloric acid was added and the incubation mixture cooled on ice.
Separation of (a) unchanged ^3 H-leucine enkephalin and (b) ^3 H-Tyr-Gly-Gly-OH (^3 H-TGG), generated from (a) by enkephalinase Al in the incubation mixture was effected by thin layer chromatography (plastic silica gel plates of 0.1 mm layer chromatography (plastic silica gel plates of 0.1 mm layer thickness, solvent system ethyl acetate: propan-2-ol: 5% (v/v) acetic acid, 2:2:1) using solutions of the cold compounds as carriers. After drying the materials were visualized with ninhydrin and appropriate areas of the plates cut out and placed in scintillation vials containing 50% methanol/0.1 M hydrochloric acid to elute the ^3 H label. Biofluor reagent (10 ml) was then added and the radioactivity determined by liquid scintillation counting.
The ^3 H-TGG generated in the presence of test compound (expressed as a percentage of the control figure) was then calculated and an approximate IC50 figure (concentration of test compound required for 50% inhibition of ^3 H-TGG generation) then determined graphically.
As to `COc1ccc(CC(C(=O)N[C@@H](CC(C)C)C(=O)O)P(=O)(O)O)cc1` (single isomer, unassigned) [Compound No. 1, N-[2-(Dihydroxyphosphinyl)-3-(4-methoxyphenyl)propionyl]-L-leucine], the IC50 amounted to 1.8 µM. The same measure, in the same setting: to `CCOC(=O)[C@H](CC(C)C)NC(=O)C(Cc1ccccc1)CP(=O)(O)O` (single isomer, unassigned) [compound 11] belongs 0.68 µM; to `CCOC(=O)[C@H](CC(C)C)NC(=O)C(Cc1ccccc1)CP(=O)(O)O` (single isomer, unassigned) [compound 12], 100 µM; to `CC(C)C[C@H](NC(=O)C(Cc1ccccc1)CP(=O)(O)O)C(=O)O` (single isomer, unassigned) [compound 13, N-[2-Benzyl-3-(dihydroxyphosphinyl)propionyl]leucine], 0.16 µM. Regarding `CC(C)C[C@H](NC(=O)C(Cc1ccccc1)CP(=O)(O)O)C(=O)O` (single isomer, unassigned) [compound 14, N-[2-Benzyl-3-(dihydroxyphosphinyl)propionyl]leucine], the IC50 is 18 µM. In the case of `C[C@H](CS)C(=O)N1CCC[C@H]1C(=O)O` [Captopril, 1-(D-3-mercapto-2-methylpropanoyl)-L-proline (S,S), reference compound], the IC50 stood at 30 µM.

Consider `CC(C)C[C@H](NC(=O)C(Cc1ccccc1)P(=O)(O)O)C(=O)O` (stereo partly drawn) [Compound No. 7, N-[2-(Dihydroxyphosphinyl)-3-phenylpropionyl]-L-leucine tri-lithium salt], for which the IC50 was determined as 0.68 µM. On the same count and under the same terms, to `CC(C)C[C@H](NC(=O)C(Cc1ccc(Br)cc1)P(=O)(O)O)C(=O)O` (stereo partly drawn) [Compound No. 9, N-[3-(4-bromophenyl)-2-dihydroxyphosphinylpropionyl]-L-leucine, monosodium salt] belongs 6.8 µM; to `CC(C)C[C@H](NC(=O)C(Cc1ccc(C(C)C)cc1)P(=O)(O)O)C(=O)O` (stereo partly drawn) [Compound No. 10, N-[2-dihydroxyphosphinyl-3-(4-isopropylphenyl)propionyl]-L-leucine, disodium salt], 23 µM; to `CCOC(=O)[C@H](CC(C)C)NC(=O)C(Cc1ccccc1)P(=O)(O)O` (stereo partly drawn) [compound 4, N-[2-(Dihydroxyphosphinyl)-3-phenylpropionyl.-L-leucine] ethyl ester], 0.6 µM. Still for that read-out and setting: under `CCOC(=O)[C@H](CC(C)C)NC(=O)C(Cc1ccccc1)P(=O)(O)O` (stereo partly drawn) [compound 5, N-[2-(Dihydroxyphosphinyl)-3-phenylpropionyl.-L-leucine] ethyl ester] stands 1.5 µM; under `CC(C)C[C@H](NC(=O)C(Cc1ccccc1)P(=O)(O)O)C(=O)O` (stereo partly drawn) [compound 6, N-[2-(Dihydroxyphosphinyl)-3-phenylpropionyl]-L-leucine tri-lithium salt], 0.13 µM.

Still in this assay, the particulars now being: no effect at 3 × 10^-5; leucine enkephalin 5×10^-5 M; 30° C.; 30 min with enzyme; read-out: IC50 (footnote symbol: no effect).
For `CCOC(=O)[C@H](CC(C)C)NC(=O)C(Cc1ccccc1)P(=O)(OCC)OCC` (stereo partly drawn) [compound 2, N-[2-(Diethoxyphosphinyl)-3-phenylpropionyl]-L-leucine ethyl ester], the IC50 was greater than 30 µM.

In the case of `CCOP(=O)(OCC)C(Cc1ccccc1)C(=O)N[C@@H](CC(C)C)C(=O)O` (stereo partly drawn) [compound 8, N-[2-(Diethoxyphosphinyl)-3-phenylpropionyl]-L-leucine], the IC50 is greater than 30 µM.
